We go through 36 compounds from patent publication US10519111B2, “UV absorbing compounds, compositions comprising same and uses thereof” (CORAL SUNSCREEN PTY LTD, priority 2013, dated 2019).

A short description of data set [1]: UV absorption properties (λmax, molar extinction coefficient ε, efficiency E 1%, 1 cm). It is filed as physicochemical.
The nature of data set [2]: Critical wavelength (λcrit), approximate in-house measurement. The format is physicochemical. The text has this: As the precise test for critical wavelength was unable to be replicated exactly by the inventors due to the need for specialist equipment and a specific calibration of the spectrophotometer, these values are only approximate to a degree. […] This represents a highly useful result and so, compounds based around this benzoyl substitution pattern shown, are especially preferred.

[3] abbreviates: Table 4, N-aryl enamines with isocyanates.
[4] abbreviates: Table 5, acylation of N-t-Bu enamine.
Where [5] appears, read: Table 5, values in order of the λmax values.
The mark [6] stands for this setting: Table 5, values in order of the λmax values, in M-1 cm-1.
Setting [7] is: Table 6B, N-tert-butyl compounds.
The mark [8] stands for this setting: Table 7, values in order of the λmax values.

Molecules are shown by their SMILES.

Take `CC1(C)CCN(C(C)(C)C)C=C1C(=O)Nc1cccc(NC(=O)C2=CN(C(C)(C)C)CCC2(C)C)c1` [drawing 66]: in data set [1] (Table 3), the “Ε (1%, 1 cm)” value was 1129. This compound registered a λmax in data set [1] (Table 3, compounds from isocyanates or isothiocyanates) of 313 nm. Besides, the ε in data set [1] (Table 3, in M-1 cm-1) amounted to 55779. Moreover, in data set [2] (Table 3), the λcrit came to 328 nm.
Turning to `Cc1ccc(N2C=C(C(=O)Nc3ccc(C)c(NC(=O)C4=CN(C(C)(C)C)CCC4(C)C)c3)C(C)(C)CC2)cc1` [drawing 67], in data set [1] (Table 4), the “Ε (1%, 1 cm)” value is listed as 954. Besides, the λmax in data set [1] (setting [3]) was 314 nm. Further, the ε in data set [1] (Table 4, in M-1 cm-1) was 51743. This compound registered a λcrit in data set [2] (Table 4) of 340 nm.
Taken in the same sequence, the figures for `CC1(C)CCN(c2ccc(C(C)(C)C)cc2)C=C1C(=O)Nc1ccc(NC(=O)C2=CN(c3ccc(C(C)(C)C)cc3)CCC2(C)C)cc1` [drawing 68] were 1054, 331 nm, 68095 and 354 nm.
Consider `Cc1ccc(N2C=C(C(=O)Nc3ccccc3)C(C)(C)CC2)cc1` [drawing 69], for which the “Ε (1%, 1 cm)” value in data set [1] (Table 4) worked out at 1060. The λmax in data set [1] (setting [3]) is recorded as 323 nm. The same compound registered a ε in data set [1] (Table 4, in M-1 cm-1) of 33948. Moreover, the λcrit in data set [2] (Table 4) was 342 nm.
Taken in the same sequence, the figures for `CC1(C)CCN(c2ccc(C(C)(C)C)cc2)C=C1C(=O)Nc1ccccc1` [drawing 70] were 987, 324 nm, 35759 and 342 nm.
`CC1(C)CCN(C(C)(C)C)C=C1C(=O)CCCCCCCCC(=O)C1=CN(C(C)(C)C)CCC1(C)C` [drawing 72] gave a λmax in data set [1] (setting [4]) of 307 nm. Further, the “Ε (1%, 1 cm)” value in data set [1] (setting [5]) is recorded as 1095. The compound further returned a ε in data set [1] (setting [6]) of 54797. In data set [2] (Table 5), this compound registered a λcrit of 322 nm.
Take `CC1(C)CCN(C(C)(C)C)C=C1C(=O)C1=CN(C(C)(C)C)CCC1(C)C` [drawing 73]: the λmax in data set [1] (setting [4]) was 305 nm. The “Ε (1%, 1 cm)” value in data set [1] (setting [5]) is 456. Moreover, the ε in data set [1] (setting [6]) worked out at 16425. For the same compound, in data set [1] (Tables 5, 10, 13B), the “shoulder in the λmax column” value was 330 nm. The compound also gave a λcrit in data set [2] (Table 5) of 351 nm.
Take `CC1(C)CCN(C(C)(C)C)C=C1C(=O)COc1ccccc1` [drawing 74]: the λmax in data set [1] (setting [4]) is given as 313 nm. In addition, the “Ε (1%, 1 cm)” value in data set [1] (setting [5]) is listed as 869. The same compound displayed a ε in data set [1] (setting [6]) of 26154. The same compound gave a λcrit in data set [2] (Table 5) of 329 nm.
Taken in the same sequence, the figures for `CC1(C)CCN(C(C)(C)C)C=C1C(=O)c1ccncc1` [drawing 75] were 316 nm, 866, 23556 and 354 nm.
Take `CC(C)CN1C=C(C(=O)c2ccc(N(C)C)cc2)C(C)(C)CC1` [drawing 83]: in data set [1] (Table 6A), the “E (1%, 1 cm)” value was determined as 544 and the ε turned out to be 17000 M⁻¹ cm⁻¹. Also, the λmax in data set [1] (Table 6A, N-isobutyl-C3-benzoyl compounds) is reported as 336 nm. In data set [2] (Table 6A), the λcrit worked out at 362 nm.
In the case of `C=CC(=O)C1=CN(C(C)(C)C)CCC1(C)C` [drawing 92], the “E (1%, 1 cm)” value in data set [1] (Table 6B) amounted to 1127. The compound further had a λmax in data set [1] (setting [7]) of 328 nm. This compound also showed a ε in data set [1] (Table 6B, in M-1 cm-1) of 24907. Moreover, the λcrit in data set [2] (Table 6B) turned out to be 360 nm.
For `CC1(C)CCN(C(C)(C)C)C=C1C(=O)/C=C/c1ccccc1` [drawing 93] the same measures were 781, 360 nm, 23198 and 385 nm.
Taken in the same sequence, the figures for `CC1(C)CCN(C(C)(C)C)C=C1C(=O)c1ccc(Br)cc1` [drawing 94] were 785, 317 nm, 27506 and 347 nm.
Taken in the same sequence, the figures for `CN(C)c1ccc(C(=O)C2=CN(C(C)(C)C)CCC2(C)C)cc1` [drawing 95] were 793, 333 nm, 24966 and 361 nm.
For the compound `CC(C)(C)Oc1ccc(C(=O)C2=CN(C(C)(C)C)CCC2(C)C)cc1` [drawing 96], in data set [1] (Table 6B), the “E (1%, 1 cm)” value is 949. In addition, in data set [1] (setting [7]), the λmax came out at 317 nm. In data set [1] (Table 6B, in M-1 cm-1), the ε is on record as 32556. In data set [2] (Table 6B), the λcrit worked out at 344 nm.
Taken in the same sequence, the figures for `CC1(C)CCN(C(C)(C)C)C=C1C(=O)c1ccc(C(=O)C2=CN(C(C)(C)C)CCC2(C)C)cc1` [drawing 97] were 732, 317 nm, 33982 and 355 nm.
Taken in the same sequence, the figures for `CC1(C)CCN(C(C)(C)C)C=C1C(=O)c1ccc(C(=O)O)cc1` [drawing 98] were 549, 317 nm, 17300 and 353 nm.
As for `CC(C)CN1C=C(C(=O)/C=C/c2ccccc2)C(C)(C)CC1` [drawing 111], the λmax in data set [1] (Table 7, unsaturated compounds) came to 360 nm. Moreover, in data set [1] (setting [8]), the “E (1%, 1 cm)” value is reported as 533 and the ε came out at 16000 M⁻¹ cm⁻¹. In addition, the λcrit in data set [2] (Table 7) is 383 nm.
`C=CC(=O)C1=CN(CC(C)C)CCC1(C)C` [drawing 112] came in with a λmax in data set [1] (Table 7, unsaturated compounds) of 330 nm. Besides, in data set [1] (setting [8]), the “E (1%, 1 cm)” value is recorded as 915 and the ε turned out to be 20500 M⁻¹ cm⁻¹. In data set [2] (Table 7), the λcrit is 363 nm.
For `CC(C)CN1C=C(C(=O)/C=C/c2ccc(C(F)(F)F)cc2)C(C)(C)CC1` [drawing 113] the same measures were 369 nm, 463, 17000 M⁻¹ cm⁻¹ and 388 nm.
The compound `COc1ccc(/C=C/C(=O)C2=CN(CC(C)C)CCC2(C)C)cc1` [drawing 114] had a λmax in data set [1] (Table 7, unsaturated compounds) of 364 nm. Also, in data set [1] (setting [8]), the “E (1%, 1 cm)” value worked out at 493 and the ε was determined as 16150 M⁻¹ cm⁻¹. The compound further came in with a λcrit in data set [2] (Table 7) of 386 nm.
For `C=C/C=C/C(=O)C1=CN(CC(C)C)CCC1(C)C` [drawing 117], the λmax in data set [1] (Table 7, unsaturated compounds) was 352 nm. Further, in data set [1] (setting [8]), the “E (1%, 1 cm)” value came out at 730 and the ε came to 18000 M⁻¹ cm⁻¹. Further, in data set [2] (Table 7), the λcrit was found to be 381 nm.
For the compound `CCC(=O)C1=CN(c2ccccc2)CCC1(C)C` [drawing 122], in data set [1] (Table 8a), the “E (1%, 1 cm)” value amounted to 947 and the ε stood at 23000 M⁻¹ cm⁻¹. For the same compound, the λmax in data set [1] (Table 8a, N-phenyl compounds) was 321 nm. The same compound had a λcrit in data set [2] (Table 8a) of 349 nm.
Turning to `C=CC(=O)C1=CN(c2ccccc2)CCC1(C)C` [drawing 123], in data set [1] (Table 8a), the “E (1%, 1 cm)” value was determined as 874 and the ε worked out at 21000 M⁻¹ cm⁻¹. This compound also showed a λmax in data set [1] (Table 8a, N-phenyl compounds) of 346 nm. This compound came in with a λcrit in data set [2] (Table 8a) of 373 nm.
Taken in the same sequence, the figures for `CC1(C)CCN(c2ccccc2)C=C1C(=O)c1ccc(Br)cc1` [drawing 124] were 629, 23300 M⁻¹ cm⁻¹, 338 nm and 366 nm.
Take `CCC(=O)C1=CN(c2ccc(OC)cc2)CCC1(C)C` [drawing 127]: in data set [1] (Table 8a), the “E (1%, 1 cm)” value is reported as 862 and the ε came out at 23500 M⁻¹ cm⁻¹. In data set [1] (Table 8a, N-phenyl compounds), this compound showed a λmax of 328 nm. In addition, in data set [2] (Table 8a), the λcrit is 350 nm.
Taken in the same sequence, the figures for `C=CC(=O)C1=CN(c2ccc(OC)cc2)CCC1(C)C` [drawing 128] were 794, 21500 M⁻¹ cm⁻¹, 350 nm and 379 nm.
For `COc1ccc(N2C=C(C(=O)c3ccc(F)cc3)C(C)(C)CC2)cc1` [drawing 129] the same measures were 571, 19350 M⁻¹ cm⁻¹, 341 nm and 369 nm.
Take `COc1ccc(N2C=C(C(=O)C3CCCC3=O)C(C)(C)CC2)cc1` (stereo not shown) [drawing 130]: the “E (1%, 1 cm)” value in data set [1] (Table 8b) amounted to 938. In data set [1] (Table 8b, N-phenyl compounds), this compound yielded a λmax of 332 nm. In addition, the ε in data set [1] (Table 8b, in M-1 cm-1) is given as 30675. Besides, the λcrit in data set [2] (Table 8b) was found to be 358 nm.
In the case of `Cc1ccc(N2C=C(C(=O)CCCCCCCCC(=O)C3=CN(c4ccc(C)cc4)CCC3(C)C)C(C)(C)CC2)cc1` [drawing 131], the “E (1%, 1 cm)” value in data set [1] (Table 8b) is given as 928. In data set [1] (Table 8b, N-phenyl compounds), this compound registered a λmax of 328 nm. The ε in data set [1] (Table 8b, in M-1 cm-1) is 52737. The compound further yielded a λcrit in data set [2] (Table 8b) of 349 nm.
For `COc1ccc(N2C=C(C(=O)COc3ccccc3)C(C)(C)CC2)cc1` [drawing 132] the same measures were 759, 339 nm, 26633 and 362 nm.
Taken in the same sequence, the figures for `COc1ccc(N2C=C(C(=O)Cc3ccccc3)C(C)(C)CC2)cc1` [drawing 133] were 1008, 334 nm, 33786 and 350 nm.
Taken in the same sequence, the figures for `CCCCCCCC(=O)C1=CN(c2ccc(N(C)C)cc2)CCC1(C)C` [drawing 134] were 785, 338 nm, 28040 and 371 nm.
Consider `CCC(=O)C1=CN(c2ccc(C)cc2)CCC1(C)C` [drawing 135], for which the “E (1%, 1 cm)” value in data set [1] (Table 8b) turned out to be 1347. In data set [1] (Table 8b, N-phenyl compounds), this compound returned a λmax of 327 nm. In data set [1] (Table 8b, in M-1 cm-1), this compound gave a ε of 34608. This compound also came in with a λcrit in data set [2] (Table 8b) of 348 nm.
Consider `CCC(=O)C1=CN(c2ccc(C(C)(C)C)cc2)CCC1(C)C` [drawing 136], for which, in data set [1] (Table 8b), the “E (1%, 1 cm)” value came out at 1069. In data set [1] (Table 8b, N-phenyl compounds), this compound showed a λmax of 329 nm. The compound further displayed a ε in data set [1] (Table 8b, in M-1 cm-1) of 31955. Also, the λcrit in data set [2] (Table 8b) is 348 nm.
For `CCC(=O)C1=CN(c2cccc3ccccc23)CCC1(C)C` [drawing 137] the same measures were 793, 321 nm, 23247 and 346 nm.
